Data published in patent US9113629B2, “4-amino-6-(4-substituted-phenyl)-picolinates and 6-amino-2-(4-substituted-phenyl)-pyrimidine-4-carboxylates and their use as herbicides” (DOW AGROSCIENCES LLC, priority 2013, dated 2015).
Where two headings read alike, the source gives them in different places.

System: test plant species in Direct Seeded Rice
Experiment: Postemergence herbicidal activity in direct seeded rice (Table 13)
Assay type: in vivo
Settings: for GR50 BRAPP / GR80 BRAPP / GR50 CYPSS / GR80 CYPSS / GR50 ECHSS / GR80 ECHSS / GR50 LEFSS / GR80 LEFSS / GR20 ORYSS / GR50 SCPJU / GR80 SCPJU / GR50 SEBEX / GR80 SEBEX: probit analysis; for GR20 ORYSS: ORYSS: Oryza sativa (crop); for pest or weed control at 35 g/ha / pest or weed control at 70 g/ha: post-emergence, 504 h; for pest or weed control at 35 g/ha: 35 g ai/ha; for pest or weed control at 70 g/ha: 70 g ai/ha
From the text: Seeds or nutlets of the desired test plant species were planted in a soil matrix prepared by mixing a loam soil (43 percent silt, 19 percent clay, and 38 percent sand, with a pH of about 8.1 and an organic matter content of about 1.5 percent) and river sand in an 80 to 20 ratio. The soil matrix was contained in plastic pots with a surface area of 139.7 cm^2. When required to ensure good germination and healthy plants, a fungicide treatment and/or other chemical or physical treatment was applied. The plants were grown for 10-17 d in a greenhouse with an approximate 14-h photoperiod which was maintained at about 29° C. during the day and 26° C. during the night. Nutrients and water were added on a regular basis and supplemental lighting was provided with overhead metal halide 1000-Watt lamps as necessary. The plants were employed for testing when they reached the second or third true leaf stage. A weighed amount, determined by the highest rate to be tested, of each test compound was placed in 25 mL glass vials and dissolved in a volume of 97:3 v/v acetone-DMSO to obtain 12× stock solutions. […] The concentrated stock solutions were added to the spray solutions so that the final acetone and DMSO concentrations were 16.2% and 0.5%, respectively. Spray solutions were diluted to the appropriate final concentrations with the addition of 10 mL of an aqueous mixture of 1.5% (v/v) Agri-dex crop oil concentrate. […] Compound requirements are based upon a 12 mL application volume at a rate of 187 L/ha. Formulated compounds were applied to the plant material with an overhead Mandel track sprayer equipped with […] nozzles calibrated to deliver 187 L/ha over an application area of 0.503 square meters (m^2) at a spray height of 18 inches (43 cm) above average plant canopy height. Control plants were sprayed in the same manner with the solvent blank. The treated plants and control plants were placed in a greenhouse as described above and watered by sub-irrigation to prevent wash-off of the test compounds. After 20-22 days, the condition of the test plants, compared with that of the untreated plants, was determined visually and scored on a scale of 0 to 100 percent where 0 corresponds to no injury and 100 corresponds to complete kill. By applying the well-accepted probit analysis as described by J. Berkson in Journal of the American Statistical Society, 48, 565 (1953) and by D. Finney in “Probit Analysis” Cambridge University Press (1952), the above data can be used to calculate GR20, GR50, GR80 and GR90 values, which are defined as growth reduction factors that correspond to the effective dose of herbicide required to kill or control 20 percent, 50 percent, 80 percent or 90 percent, respectively, of a target plant.

[1] = BRAPP: broadleaf signalgrass, Brachiaria platyphylla
[2] = CYPSS: sedge (Cyperus difformis, esculentus, iria)
[3] = ECHSS: barnyardgrass (Echinochloa crus-galli), junglerice (Echinochloa colonum)
[4] = LEFSS: sprangletop (Leptochloa chinensis, Leptochloa dubia)
[5] = SCPJU: Japanese bulrush, Scirpus juncoides
[6] = SEBEX: hemp sesbania, Sesbania exaltata
[7] = BRAPP: broadleaf signalgrass, Brachiaria platyphylla, read-out: Visual Growth Reduction (%) 21 Days After Application BRAPP
[8] = CYPSS: sedge (Cyperus difformis, esculentus, iria), read-out: Visual Growth Reduction (%) 21 Days After Application CYPSS
[9] = ECHSS: barnyardgrass (Echinochloa crus-galli), junglerice (Echinochloa colonum), read-out: Visual Growth Reduction (%) 21 Days After Application ECHSS
[10] = LEFSS: sprangletop (Leptochloa chinensis, Leptochloa dubia), read-out: Visual Growth Reduction (%) 21 Days After Application LEFSS
[11] = ORYSS: Oryza sativa, read-out: Visual Growth Reduction (%) 21 Days After Application ORYSS
[12] = SCPJU: Japanese bulrush, Scirpus juncoides, read-out: Visual Growth Reduction (%) 21 Days After Application SCPJU
[13] = SEBEX: hemp sesbania, Sesbania exaltata, read-out: Visual Growth Reduction (%) 21 Days After Application SEBEX

SMILES	GR50 BRAPP [1] [g ai/ha]	GR80 BRAPP [1] [g ai/ha]	GR50 CYPSS [2] [g ai/ha]	GR80 CYPSS [2] [g ai/ha]	GR50 ECHSS [3] [g ai/ha]	GR80 ECHSS [3] [g ai/ha]	GR50 LEFSS [4] [g ai/ha]	GR80 LEFSS [4] [g ai/ha]	GR20 ORYSS [g ai/ha]	GR50 SCPJU [5] [g ai/ha]	GR80 SCPJU [5] [g ai/ha]	GR50 SEBEX [6] [g ai/ha]	GR80 SEBEX [6] [g ai/ha]	pest or weed control at 35 g/ha [7] [%]	pest or weed control at 70 g/ha [7] [%]	pest or weed control at 35 g/ha [8] [%]	pest or weed control at 70 g/ha [8] [%]	pest or weed control at 35 g/ha [9] [%]	pest or weed control at 70 g/ha [9] [%]	pest or weed control at 35 g/ha [10] [%]	other results
Nc1cc(-c2ccc(Br)cc2F)nc(C(=O)O)c1Cl [Compound 74]	1	5	5	10	1	1	6	13	4	1	1	1	1	95 to 100	95 to 100	95 to 100	95 to 100	95 to 100	95 to 100	95 to 100	pest or weed control at 70 g/ha [10]: 95 to 100%; pest or weed control at 35 g/ha [11]: 60 to 74%; pest or weed control at 70 g/ha [11]: 60 to 74%; pest or weed control at 35 g/ha [12]: 95 to 100%; pest or weed control at 70 g/ha [12]: 95 to 100%; pest or weed control at 35 g/ha [13]: 95 to 100%; pest or weed control at 70 g/ha [13]: 95 to 100%
Nc1c(Cl)c(C(=O)O)nc(-c2ccc(C(F)(F)F)c(F)c2)c1Cl [Compound 146]	8	29	1	1	17	32	44	87	18	1	1	3	4	60 to 74	95 to 100	95 to 100	95 to 100	85 to 94	85 to 94	0 to 29	pest or weed control at 70 g/ha [10]: 75 to 84%; pest or weed control at 35 g/ha [11]: 30 to 44%; pest or weed control at 70 g/ha [11]: 60 to 74%; pest or weed control at 35 g/ha [12]: 95 to 100%; pest or weed control at 70 g/ha [12]: 95 to 100%; pest or weed control at 35 g/ha [13]: 95 to 100%; pest or weed control at 70 g/ha [13]: 95 to 100%
COC(=O)c1nc(-c2ccc(I)cc2F)cc(N)c1Cl [Compound 159]	3	8	2	5	2	4	12	19	12	1	1	1	1	95 to 100	95 to 100	95 to 100	95 to 100	95 to 100	95 to 100	95 to 100	pest or weed control at 70 g/ha [10]: 95 to 100%; pest or weed control at 35 g/ha [11]: 45 to 59%; pest or weed control at 70 g/ha [11]: 60 to 74%; pest or weed control at 35 g/ha [12]: 95 to 100%; pest or weed control at 70 g/ha [12]: 95 to 100%; pest or weed control at 35 g/ha [13]: 95 to 100%; pest or weed control at 70 g/ha [13]: 95 to 100%
